According to PubChem BioAssay (NCI):
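Step 1: Grow cells in 96-well plates. Step 2: Expose to compound for 48 hours at 5 concentrations. Step 3: Interpolate endpoints linearly; if unreached, use highest concentration. Definition used: TGI = concentration required for complete inhibition of growth.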

What was measured:
[1] = system: SNB-75 CNS; assay: NCI-60 cell line screen, 48 h
[2] = system: HL-60(TB) leukemia; assay: NCI-60 cell line screen, 48 h

CC(=O)OCC1OC(n2c(-c3ccc(C)cc3)cc(-c3ccco3)c(C#N)c2=O)C(OC(C)=O)C(OC(C)=O)C1OC(C)=O (configuration not stated)
TGI [1]: > 100 µM | TGI [2]: > 100 µM
